Results taken from ChEMBL document CHEMBL5528046, “Discovery of Novel PROTAC Degraders of p300/CBP as Potential Therapeutics for Hepatocellular Carcinoma” (J Med Chem, 2024).
pIC50: −log10 of the molar value. Active and inactive are the calls of the source. No cut-off for these calls is given here.

Experiments:
[1] = target: T1, Protein cereblon/Histone acetyltransferase p300 (Homo sapiens, UniProt Q09472+Q96SW2); test: PROTAC activity at CRBN/p300 in human SK-HEP1 cells assessed as induction of p300 protein degradation at 1 uM incubated for 24 hrs relative to control; assay type: cell-based
Target sequence in this assay (Q09472 2-2414 limits assumed): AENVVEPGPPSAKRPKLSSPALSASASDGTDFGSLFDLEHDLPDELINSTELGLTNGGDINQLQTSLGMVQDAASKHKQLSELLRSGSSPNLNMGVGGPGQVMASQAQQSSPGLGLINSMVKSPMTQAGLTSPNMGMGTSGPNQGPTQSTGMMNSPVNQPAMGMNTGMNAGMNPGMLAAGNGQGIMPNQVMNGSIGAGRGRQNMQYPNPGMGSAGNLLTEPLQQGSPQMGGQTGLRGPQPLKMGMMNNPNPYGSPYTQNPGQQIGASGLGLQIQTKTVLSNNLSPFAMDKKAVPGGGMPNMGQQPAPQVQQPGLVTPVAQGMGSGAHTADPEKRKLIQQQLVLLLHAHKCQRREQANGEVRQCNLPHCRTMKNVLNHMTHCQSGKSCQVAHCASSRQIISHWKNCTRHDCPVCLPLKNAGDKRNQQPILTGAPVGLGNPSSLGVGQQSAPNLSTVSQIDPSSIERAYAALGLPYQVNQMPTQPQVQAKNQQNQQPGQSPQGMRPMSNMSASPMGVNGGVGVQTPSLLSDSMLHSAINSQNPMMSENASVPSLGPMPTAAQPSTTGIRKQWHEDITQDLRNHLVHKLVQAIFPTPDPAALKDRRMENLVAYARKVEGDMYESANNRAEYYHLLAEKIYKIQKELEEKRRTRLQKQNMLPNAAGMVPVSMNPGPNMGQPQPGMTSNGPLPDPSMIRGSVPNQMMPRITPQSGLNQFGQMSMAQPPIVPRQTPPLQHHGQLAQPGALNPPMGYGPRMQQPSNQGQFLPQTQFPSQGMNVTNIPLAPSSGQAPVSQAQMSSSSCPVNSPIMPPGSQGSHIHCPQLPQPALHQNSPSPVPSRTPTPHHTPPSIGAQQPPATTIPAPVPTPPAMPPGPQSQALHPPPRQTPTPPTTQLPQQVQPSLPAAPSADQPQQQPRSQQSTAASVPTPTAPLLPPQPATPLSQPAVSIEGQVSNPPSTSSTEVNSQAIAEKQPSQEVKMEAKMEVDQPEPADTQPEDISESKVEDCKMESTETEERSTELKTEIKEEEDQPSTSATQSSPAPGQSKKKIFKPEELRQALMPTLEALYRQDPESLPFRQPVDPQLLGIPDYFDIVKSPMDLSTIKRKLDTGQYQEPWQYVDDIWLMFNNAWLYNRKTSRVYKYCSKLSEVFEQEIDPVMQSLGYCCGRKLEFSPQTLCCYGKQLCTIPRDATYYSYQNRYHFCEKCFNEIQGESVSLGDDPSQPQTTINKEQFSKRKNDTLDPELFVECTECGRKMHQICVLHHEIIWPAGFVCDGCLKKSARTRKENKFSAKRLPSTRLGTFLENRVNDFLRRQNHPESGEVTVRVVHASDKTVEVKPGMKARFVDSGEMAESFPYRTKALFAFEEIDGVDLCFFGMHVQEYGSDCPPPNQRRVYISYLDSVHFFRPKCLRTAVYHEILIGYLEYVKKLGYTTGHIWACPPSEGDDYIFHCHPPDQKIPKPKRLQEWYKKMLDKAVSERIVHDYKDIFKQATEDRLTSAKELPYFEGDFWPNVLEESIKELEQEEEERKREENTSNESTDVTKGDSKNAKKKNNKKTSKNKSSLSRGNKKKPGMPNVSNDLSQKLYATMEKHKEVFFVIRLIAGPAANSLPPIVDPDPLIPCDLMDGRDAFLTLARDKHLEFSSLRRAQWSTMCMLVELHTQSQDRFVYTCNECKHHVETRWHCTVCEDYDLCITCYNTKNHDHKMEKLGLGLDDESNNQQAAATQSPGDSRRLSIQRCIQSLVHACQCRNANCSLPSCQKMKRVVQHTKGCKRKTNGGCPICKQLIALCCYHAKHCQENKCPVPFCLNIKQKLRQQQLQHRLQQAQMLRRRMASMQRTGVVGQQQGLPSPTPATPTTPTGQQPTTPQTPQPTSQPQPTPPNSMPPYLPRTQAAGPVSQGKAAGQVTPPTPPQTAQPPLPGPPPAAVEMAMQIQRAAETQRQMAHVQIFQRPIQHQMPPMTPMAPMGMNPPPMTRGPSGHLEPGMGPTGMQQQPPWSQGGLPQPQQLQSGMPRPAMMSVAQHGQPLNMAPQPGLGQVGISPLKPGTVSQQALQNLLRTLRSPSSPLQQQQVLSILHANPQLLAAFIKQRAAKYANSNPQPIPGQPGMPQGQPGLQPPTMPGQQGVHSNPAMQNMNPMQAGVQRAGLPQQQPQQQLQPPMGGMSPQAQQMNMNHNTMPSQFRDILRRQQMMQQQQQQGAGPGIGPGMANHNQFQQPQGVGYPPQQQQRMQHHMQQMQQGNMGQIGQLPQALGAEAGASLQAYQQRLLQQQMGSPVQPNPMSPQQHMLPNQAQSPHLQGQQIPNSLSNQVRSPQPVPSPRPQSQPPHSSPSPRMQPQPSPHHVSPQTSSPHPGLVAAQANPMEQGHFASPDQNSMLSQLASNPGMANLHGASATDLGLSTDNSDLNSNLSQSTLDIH
Target sequence in this assay (Q96SW2 whole entry partner): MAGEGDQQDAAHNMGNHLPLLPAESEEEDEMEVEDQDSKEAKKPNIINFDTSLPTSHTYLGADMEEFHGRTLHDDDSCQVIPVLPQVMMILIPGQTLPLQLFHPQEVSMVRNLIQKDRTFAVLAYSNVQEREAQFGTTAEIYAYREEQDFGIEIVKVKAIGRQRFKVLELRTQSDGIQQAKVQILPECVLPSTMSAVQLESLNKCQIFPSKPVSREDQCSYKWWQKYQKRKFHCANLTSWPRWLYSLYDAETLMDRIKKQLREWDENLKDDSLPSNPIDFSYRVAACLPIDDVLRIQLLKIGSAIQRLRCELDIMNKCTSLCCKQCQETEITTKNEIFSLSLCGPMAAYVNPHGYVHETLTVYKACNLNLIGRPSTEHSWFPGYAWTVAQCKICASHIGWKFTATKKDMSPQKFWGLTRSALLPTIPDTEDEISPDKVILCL

[2] = target: T1, Protein cereblon/Histone acetyltransferase p300; test: PROTAC activity at CRBN/p300 in human SK-HEP1 cells assessed as induction of p300 protein degradation incubated for 24 hrs by immunoblotting analysis; assay type: cell-based
[3] = target: T1, Protein cereblon/Histone acetyltransferase p300; test: PROTAC activity at CRBN/p300 in human SK-HEP1 cells assessed as induction of p300 protein degradation by measuring residual activity at 250 nM incubated for 24 hrs by immunoblotting analysis (reference value: 100%); assay type: cell-based
Target sequence in this assay (Q09472 2-2414 limits assumed): as the sequence (Q09472 2-2414 limits assumed) above
Target sequence in this assay (Q96SW2 whole entry partner): as the sequence (Q96SW2 whole entry partner) above

[4] = target: T1, Protein cereblon/Histone acetyltransferase p300; test: PROTAC activity at CRBN/p300 in human SK-HEP1 cells assessed as induction of p300 protein degradation by measuring residual activity at 1 uM incubated for 1 hrs by immunoblotting analysis (reference value: 100%); assay type: cell-based
Target sequence in this assay (Q09472 2-2414 limits assumed): as the sequence (Q09472 2-2414 limits assumed) above
Target sequence in this assay (Q96SW2 whole entry partner): as the sequence (Q96SW2 whole entry partner) above

[5] = target: T1, Protein cereblon/Histone acetyltransferase p300; test: PROTAC activity at CRBN/p300 in human SK-HEP1 cells assessed as induction of p300 protein degradation by measuring residual activity at 1 uM incubated for 12 hrs by immunoblotting analysis (reference value: 100%); assay type: cell-based
Target sequence in this assay (Q09472 2-2414 limits assumed): as the sequence (Q09472 2-2414 limits assumed) above
Target sequence in this assay (Q96SW2 whole entry partner): as the sequence (Q96SW2 whole entry partner) above

[6] = target: Protein cereblon/CREB-binding protein (Homo sapiens) (UniProt Q92793+Q96SW2); test: PROTAC activity at CRBN/CBP in human SK-HEP1 cells assessed as induction of […] protein degradation by measuring residual activity incubated for 24 hrs by immunoblotting analysis; assay type: cell-based; conditions: dose 0.5-2 µM
SK-HEP1 [7] = test: Downregulation of COL3A1 mRNA expression in human SK-HEP1 cells at 1 uM incubated for 24 hrs by RT-qPCR analysis; assay type: functional, cell-based
[8] = Antiproliferative activity against human JHH7 cells assessed as inhibition of cell growth incubated for 5 days by CCK-8 assay; assay type: functional, cell-based; conditions: JHH7, 120 h
SK-HEP1 [9] = test: Inhibition of colony formation in human SK-HEP1 cells at 1 uM incubated for 14 days with compound containing media replacement for every 3 days by crystal violet staining based assay relative to control; assay type: functional; conditions: SK-HEP1, 336 h, time 14 day
SK-HEP1 [10] = test: Induction of cell cycle arrest at G2/M phase in human SK-HEP1 cells assessed as SKP2 protein level at 0.5 uM incubated for 24 hrs by immunoblotting analysis (reference value: 100%); assay type: functional
SK-HEP1 [11] = test: Induction of cell cycle arrest at G2/M phase in human SK-HEP1 cells assessed as SKP2 protein level at 2 uM incubated for 24 hrs by immunoblotting analysis (reference value: 100%); assay type: functional
SK-HEP1 [12] = test: Induction of cell cycle arrest at G2/M phase in human SK-HEP1 cells assessed as CDK6 protein level at 1 uM incubated for 24 hrs by immunoblotting analysis (reference value: 100%); assay type: functional
SK-HEP1 [13] = test: Induction of cell cycle arrest at G2/M phase in human SK-HEP1 cells assessed as reduction in CDK6 protein level at 2 uM incubated for 24 hrs by immunoblotting analysis (reference value: 100%); assay type: functional; set-up: scale not given: the % may be the effect or the level left

Activity [1]: 47%
Activity [2]: Dose-Dependent Effect
DC50 [2]: 0.093 µM
Activity [3]: 38%
Activity [4]: 78%
Activity [5]: 58%
Activity [6]: Dose-Dependent Effect
Structure (SMILES): Cc1noc(C)c1-c1ccc2c(c1)nc([C@@H]1CCCC(=O)N1c1ccc(F)c(F)c1)n2C1CCN(C2CN(c3ccc4c(c3)C(=O)N(C3CCC(=O)NC3=O)C4=O)C2)CC1 (some centres undefined)
Activity (SK-HEP1 [7]): Active
pIC50 [8]: 6.35
inhibition at 1 µM (SK-HEP1 [9]): > 70%
Activity (SK-HEP1 [10]): 117%
Activity (SK-HEP1 [11]): 60%
Activity (SK-HEP1 [12]): 102%
Activity (SK-HEP1 [13]): 87%
